System: aging-accelerated model mice (SAMP10)
Experiment: Number of collisions on treadmill retest 12, 24 or 72 hours after local injection (Example 2)
Format: in vivo
Conditions: SAMP10 36 weeks old, SV peptide total 40 ng into bilateral lower limb muscles, vs PBS control, FIG. 2
Procedure: In this example, SV peptide was administered to aging-accelerated model mice, and the recovery effect of muscle function after a certain period of time by the administration was confirmed.
Treadmill running was performed using aging-accelerated model mice (SAMP10 36 weeks old) under the same conditions as the first basic training of 35-week-old mice in Example 1, and SV peptide (total 40 ng) was injected into the bilateral lower limb muscles immediately after treadmill running (experimental group).
SV peptide was administered at the same site and dose as in the 35-week-old mice of Example 1. The number of collisions was evaluated by retesting treadmill running (18 m/min×90 min) at 12, 24, or 72 hours after local injection. In the control group, after treadmill running as in the experimental group, PBS was injected into the bilateral leg muscles instead of SV peptide, and the number of collisions on the treadmill was measured 12, 24, or 72 hours after the injection.

Measured: number of collisions during treadmill running

SVVYGLR [SV peptide, peptide consisting of 7 amino acids (SVVYGLR]
significantly reduced: 12 hours after local injection | 24 hours after local injection | 72 hours after local injection

Reference: US20230381275A1, “MUSCULAR FUNCTION IMPROVING AGENT FOR SKELETAL MUSCLE OF WHICH FUNCTION IS DEGRADED DUE TO AGING” (OSAKA UNIVERSITY, priority 2020, published 2023)
